Reference: ChEMBL document CHEMBL1201861, “Genomics of Drug Sensitity in Cancer screening data, Wellcome Trust Sanger Institute”

How the values were obtained:
Assay in all cases: cells
COLO-678 = type: functional, cell-based, Homo sapiens; details: Homo sapiens, COLO-678
Description: SANGER: Inhibition of human COLO-678 cell growth in a cell viability assay.

NCI-H2347 = type: functional, cell-based, Homo sapiens; details: Homo sapiens, NCI-H2347;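 note: growth inhibition of the cell line, read out with a cell viability assay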
Description: SANGER: Inhibition of human NCI-H2347 cell growth in a cell viability assay.

SK-PN-DW = type: functional, cell-based; details: Homo sapiens;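 note: growth inhibition measured with a viability assay on these cells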
Description: SANGER: Inhibition of human SK-PN-DW cell growth in a cell viability assay.

COLO-792 = type: functional, cell-based, Homo sapiens; details: Homo sapiens, COLO-792
Description: SANGER: Inhibition of human COLO-792 cell growth in a cell viability assay.

MFM-223 = type: functional, cell-based, Homo sapiens; details: Homo sapiens, MFM-223
Description: SANGER: Inhibition of human MFM-223 cell growth in a cell viability assay.

DSH1 = type: functional, cell-based, Homo sapiens; details: Homo sapiens, DSH1;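 note: growth inhibition of human DSH1 cells, measured with a cell viability readout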
Description: SANGER: Inhibition of human DSH1 cell growth in a cell viability assay.

KINGS-1 = type: functional, cell-based, Homo sapiens; details: Homo sapiens, KINGS-1;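 note: cell viability assay measuring suppression of KINGS-1 cell growth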
Description: SANGER: Inhibition of human KINGS-1 cell growth in a cell viability assay.

OVCAR-3 = type: functional, cell-based, Homo sapiens; details: Homo sapiens, OVCAR-3;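 note: growth inhibition of human OVCAR-3 cells, determined by a cell viability assay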
Description: SANGER: Inhibition of human OVCAR-3 cell growth in a cell viability assay.

CWR22R = type: functional, cell-based, Homo sapiens; details: Homo sapiens, 22Rv1;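 note: growth inhibition of 22Rv1 cells, read out with a cell viability assay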
Description: SANGER: Inhibition of human 22RV1 cell growth in a cell viability assay.

TYK-nu = type: functional, cell-based, Homo sapiens; details: Homo sapiens, TYK-nu;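 note: growth inhibition of human TYK-nu cells, read out by a cell viability assay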
Description: SANGER: Inhibition of human TYK-nu cell growth in a cell viability assay.

U-87 MG = type: functional, cell-based, U-87MG ATCC; details: Homo sapiens;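 note: growth inhibition of the cells measured with a viability assay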
Description: SANGER: Inhibition of human U-87-MG cell growth in a cell viability assay.

HGC-27 = type: functional, cell-based, Homo sapiens; details: Homo sapiens, HGC-27;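 note: growth inhibition of human HGC-27 cells, read out in a cell viability assay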
Description: SANGER: Inhibition of human HGC-27 cell growth in a cell viability assay.

K5 = type: functional, cell-based, Homo sapiens; details: Homo sapiens, K5
Description: SANGER: Inhibition of human K5 cell growth in a cell viability assay.

KM-H2 = type: functional, cell-based; details: Homo sapiens;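 note: growth inhibition of KM-H2 cells, read out by a cell viability assay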
Description: SANGER: Inhibition of human KM-H2 cell growth in a cell viability assay.

NCI-H526 = type: functional, cell-based; details: Homo sapiens;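 note: growth inhibition of the human NCI-H526 cell line, measured by a cell viability assay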
Description: SANGER: Inhibition of human NCI-H526 cell growth in a cell viability assay.

NCI-H1650 = type: functional, cell-based, Homo sapiens; details: Homo sapiens, NCI-H1650;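 note: growth inhibition of human NCI-H1650 cells measured by a cell viability assay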
Description: SANGER: Inhibition of human NCI-H1650 cell growth in a cell viability assay.

MKN-45 = type: functional, cell-based, Homo sapiens; details: Homo sapiens, MKN-45;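 note: growth inhibition of human MKN-45 cells, measured with a cell viability assay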
Description: SANGER: Inhibition of human MKN45 cell growth in a cell viability assay.

SW756 = type: functional, cell-based, Homo sapiens; details: Homo sapiens, SW756;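 note: growth inhibition of human SW756 cells, read out with a cell viability assay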
Description: SANGER: Inhibition of human SW756 cell growth in a cell viability assay.

BV-173 = type: functional, cell-based; details: Homo sapiens
Description: SANGER: Inhibition of human BV-173 cell growth in a cell viability assay.

ACN = type: functional, cell-based, Homo sapiens; details: Homo sapiens, ACN;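 note: growth inhibition of the human ACN cell line, read out via cell viability testing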
Description: SANGER: Inhibition of human ACN cell growth in a cell viability assay.

HCT-116 = type: functional, cell-based, Homo sapiens; details: Homo sapiens, HCT-116
Description: SANGER: Inhibition of human HCT-116 cell growth in a cell viability assay.

KU-19-19 = type: functional, cell-based, Homo sapiens; details: Homo sapiens, KU-19-19
Description: SANGER: Inhibition of human KU-19-19 cell growth in a cell viability assay.

A204 = type: functional, cell-based, Homo sapiens; details: Homo sapiens, A204;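 note: growth inhibition of human A204 cells, read out with a cell viability assay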
Description: SANGER: Inhibition of human A204 cell growth in a cell viability assay.

SK-MEL-30 = type: functional, cell-based; details: Homo sapiens;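 note: growth inhibition of SK-MEL-30 cells, determined with a cell viability assay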
Description: SANGER: Inhibition of human SK-MEL-30 cell growth in a cell viability assay.

NB10 = type: functional, cell-based, Homo sapiens; details: Homo sapiens, NB10;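 note: growth inhibition of NB10 cells, read out by a cell viability assay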
Description: SANGER: Inhibition of human NB10 cell growth in a cell viability assay.

NH-12 = type: functional, cell-based, Homo sapiens; details: Homo sapiens, NH-12;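 note: growth inhibition of NH-12 cells, read out with a cell viability assay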
Description: SANGER: Inhibition of human NH-12 cell growth in a cell viability assay.

DOHH-2 = type: functional, cell-based; details: Homo sapiens;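 note: growth inhibition of human DOHH-2 cells, read out with a cell viability assay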
Description: SANGER: Inhibition of human DOHH-2 cell growth in a cell viability assay.

HCC38 = type: functional, cell-based, Homo sapiens; details: Homo sapiens, HCC38;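 note: cell viability assay on the human HCC38 cell line, with IC50 marking the concentration that inhibits cell growth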
Description: SANGER: Inhibition of human HCC38 cell growth in a cell viability assay.

HuTu80 = type: functional, cell-based, Homo sapiens, HUTU-80; details: Homo sapiens, HuTu80;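 note: growth inhibition of HuTu80 human cells, determined with a cell viability readout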
Description: SANGER: Inhibition of human HUTU-80 cell growth in a cell viability assay.

MLMA = type: functional, cell-based, Homo sapiens; details: Homo sapiens, MLMA;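 note: growth inhibition of MLMA cells (human), determined through a cell viability readout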
Description: SANGER: Inhibition of human MLMA cell growth in a cell viability assay.

GI-1 = type: functional, cell-based, Homo sapiens; details: Homo sapiens, GI-1;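 note: growth inhibition of human GI-1 cells, measured with a cell viability readout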
Description: SANGER: Inhibition of human GI-1 cell growth in a cell viability assay.

BB49-HNC = type: functional, cell-based, Homo sapiens; details: Homo sapiens, BB49-HNC;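 note: cell viability assay read-out, reported as inhibition of BB49-HNC cell growth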
Description: SANGER: Inhibition of human BB49-HNC cell growth in a cell viability assay.

MHH-ES-1 = type: functional, cell-based, Homo sapiens; details: Homo sapiens, MHH-ES-1;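 note: cell growth inhibition measured by a cell viability assay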
Description: SANGER: Inhibition of human MHH-ES-1 cell growth in a cell viability assay.

HN = type: functional, cell-based, Homo sapiens; details: Homo sapiens, HN
Description: SANGER: Inhibition of human HN cell growth in a cell viability assay.

EOL1 = type: functional, cell-based; details: Homo sapiens;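 note: growth inhibition of EoL-1 cells, read out by a cell viability assay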
Description: SANGER: Inhibition of human EoL-1-cell cell growth in a cell viability assay.

KYSE-410 = type: functional, cell-based, Homo sapiens; details: Homo sapiens, KYSE-410;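 note: growth inhibition of KYSE-410 cells, measured through a cell viability readout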
Description: SANGER: Inhibition of human KYSE-410 cell growth in a cell viability assay.

ABC-1 = type: functional, cell-based, Homo sapiens; details: Homo sapiens, ABC-1;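 note: growth inhibition of human ABC-1 cells, read out by a cell viability assay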
Description: SANGER: Inhibition of human ABC-1 cell growth in a cell viability assay.

NCI-H1792 = type: functional, cell-based, Homo sapiens; details: Homo sapiens, NCI-H1792;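 note: growth inhibition of human NCI-H1792 cells, read out as cell viability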
Description: SANGER: Inhibition of human NCI-H1792 cell growth in a cell viability assay.

MFE-280 = type: functional, cell-based, Homo sapiens; details: Homo sapiens, MFE-280;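 note: growth inhibition of MFE-280 cells, determined with a cell viability readout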
Description: SANGER: Inhibition of human MFE-280 cell growth in a cell viability assay.

YAPC = type: functional, cell-based, Homo sapiens; details: Homo sapiens, YAPC;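 note: growth inhibition of YAPC cells, measured with a cell viability assay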
Description: SANGER: Inhibition of human YAPC cell growth in a cell viability assay.

OE19 = type: functional, cell-based, Homo sapiens; details: Homo sapiens, OE19;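 note: growth inhibition of OE19 cells, measured through a cell viability read-out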
Description: SANGER: Inhibition of human OE19 cell growth in a cell viability assay.

Huh-7 = type: functional, cell-based, Homo sapiens; details: Homo sapiens, Huh-7;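 note: HuH-7 cell growth inhibition, read out with a cell viability assay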
Description: SANGER: Inhibition of human HuH-7 cell growth in a cell viability assay.

COLO-829 = type: functional, cell-based, Homo sapiens; details: Homo sapiens, COLO-829
Description: SANGER: Inhibition of human COLO-829 cell growth in a cell viability assay.

HO-1-N-1 = type: functional, cell-based, Homo sapiens; details: Homo sapiens, HO-1-N-1;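 note: growth inhibition of human HO-1-N-1 cells, read out with a cell viability assay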
Description: SANGER: Inhibition of human HO-1-N-1 cell growth in a cell viability assay.

SW 954 = type: functional, cell-based, Homo sapiens; details: Homo sapiens, SW 954;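 note: growth inhibition of SW954 human cancer cells, read out as cell viability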
Description: SANGER: Inhibition of human SW954 cell growth in a cell viability assay.

ES7 = type: functional, cell-based, Homo sapiens; details: Homo sapiens, ES7;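 note: growth inhibition of cultured human ES7 cells, read out as cell viability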
Description: SANGER: Inhibition of human ES7 cell growth in a cell viability assay.

CGTH-W-1 = type: functional, cell-based, Homo sapiens; details: Homo sapiens, CGTH-W-1;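 note: growth inhibition of human CGTH-W-1 cells measured by cell viability assay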
Description: SANGER: Inhibition of human CGTH-W-1 cell growth in a cell viability assay.

T-24 = type: functional, cell-based, Homo sapiens; details: Homo sapiens, T-24;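 note: growth inhibition of T-24 cells, read out with a cell viability assay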
Description: SANGER: Inhibition of human T-24 cell growth in a cell viability assay.

LB1047-RCC = type: functional, cell-based, Homo sapiens; details: Homo sapiens, LB1047-RCC;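 note: inhibition of cell growth, determined with a cell viability assay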
Description: SANGER: Inhibition of human LB1047-RCC cell growth in a cell viability assay.

RH-1 = type: functional, cell-based, Homo sapiens; details: Homo sapiens, RH-1;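 note: growth inhibition of human RH-1 cells, read out with a cell viability assay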
Description: SANGER: Inhibition of human RH-1 cell growth in a cell viability assay.

OMC-1 = type: functional, cell-based, Homo sapiens; details: Homo sapiens, OMC-1;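 note: growth inhibition of the OMC-1 cell line, measured by a cell viability assay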
Description: SANGER: Inhibition of human OMC-1 cell growth in a cell viability assay.

CC(=O)O[C@@H]1[C@@H](OC(C)=O)[C@@H](O)[C@H](Oc2c(-c3ccc(O)cc3)oc3cc(O)cc(O)c3c2=O)O[C@H]1C
IC50 (COLO-678): > 10 µM | IC50 (NCI-H2347): > 10 µM | IC50 (SK-PN-DW): > 10 µM | IC50 (COLO-792): > 10 µM | IC50 (MFM-223): > 10 µM | IC50 (DSH1): > 10 µM | IC50 (KINGS-1): > 10 µM | IC50 (OVCAR-3): > 10 µM | IC50 (CWR22R): > 10 µM | IC50 (TYK-nu): > 10 µM | IC50 (U-87 MG): > 10 µM | IC50 (HGC-27): > 10 µM | IC50 (K5): > 10 µM | IC50 (KM-H2): > 10 µM | IC50 (NCI-H526): > 10 µM | IC50 (NCI-H1650): > 10 µM | IC50 (MKN-45): > 10 µM | IC50 (SW756): > 10 µM | IC50 (BV-173): 3.01 µM | IC50 (ACN): > 10 µM | IC50 (HCT-116): > 10 µM | IC50 (KU-19-19): > 10 µM | IC50 (A204): > 10 µM | IC50 (SK-MEL-30): > 10 µM | IC50 (NB10): > 10 µM | IC50 (NH-12): > 10 µM | IC50 (DOHH-2): > 10 µM | IC50 (HCC38): > 10 µM | IC50 (HuTu80): > 10 µM | IC50 (MLMA): > 10 µM | IC50 (GI-1): > 10 µM | IC50 (BB49-HNC): > 10 µM | IC50 (MHH-ES-1): > 10 µM | IC50 (HN): > 10 µM | IC50 (EOL1): > 10 µM | IC50 (KYSE-410): > 10 µM | IC50 (ABC-1): > 10 µM | IC50 (NCI-H1792): > 10 µM | IC50 (MFE-280): > 10 µM | IC50 (YAPC): > 10 µM | IC50 (OE19): > 10 µM | IC50 (Huh-7): > 10 µM | IC50 (COLO-829): > 10 µM | IC50 (HO-1-N-1): > 10 µM | IC50 (SW 954): > 10 µM | IC50 (ES7): > 10 µM | IC50 (CGTH-W-1): > 10 µM | IC50 (T-24): > 10 µM | IC50 (LB1047-RCC): > 10 µM | IC50 (RH-1): > 10 µM

O=c1cc(-c2cccc3c2Sc2ccccc2S3)oc(N2CCOCC2)c1 [KU-55933]
IC50 (COLO-678): > 10 µM | IC50 (NCI-H2347): > 10 µM | IC50 (OMC-1): > 10 µM | IC50 (SK-PN-DW): > 10 µM | IC50 (COLO-792): > 10 µM | IC50 (MFM-223): > 10 µM | IC50 (DSH1): > 10 µM | IC50 (KINGS-1): > 10 µM | IC50 (OVCAR-3): > 10 µM | IC50 (CWR22R): > 10 µM | IC50 (TYK-nu): > 10 µM | IC50 (U-87 MG): > 10 µM | IC50 (HGC-27): > 10 µM | IC50 (K5): > 10 µM | IC50 (KM-H2): > 10 µM | IC50 (NCI-H526): > 10 µM | IC50 (NCI-H1650): > 10 µM | IC50 (MKN-45): > 10 µM | IC50 (SW756): > 10 µM | IC50 (ACN): > 10 µM | IC50 (HCT-116): > 10 µM | IC50 (KU-19-19): > 10 µM | IC50 (A204): > 10 µM | IC50 (SK-MEL-30): > 10 µM | IC50 (NB10): > 10 µM | IC50 (NH-12): > 10 µM | IC50 (DOHH-2): > 10 µM | IC50 (HCC38): > 10 µM | IC50 (HuTu80): > 10 µM | IC50 (MLMA): > 10 µM | IC50 (GI-1): > 10 µM | IC50 (BB49-HNC): > 10 µM | IC50 (MHH-ES-1): > 10 µM | IC50 (HN): > 10 µM | IC50 (KYSE-410): > 10 µM | IC50 (ABC-1): > 10 µM | IC50 (NCI-H1792): > 10 µM | IC50 (MFE-280): > 10 µM | IC50 (YAPC): > 10 µM | IC50 (OE19): > 10 µM | IC50 (Huh-7): > 10 µM | IC50 (COLO-829): > 10 µM | IC50 (HO-1-N-1): > 10 µM | IC50 (SW 954): > 10 µM | IC50 (ES7): > 10 µM | IC50 (CGTH-W-1): > 10 µM | IC50 (T-24): > 10 µM | IC50 (LB1047-RCC): > 10 µM | IC50 (RH-1): > 10 µM

O=C(c1cc(Cc2n[nH]c(=O)c3ccccc23)ccc1F)N1CCN(C(=O)C2CC2)CC1 [OLAPARIB]
IC50 (COLO-678): > 5 µM | IC50 (NCI-H2347): > 5 µM | IC50 (OMC-1): > 5 µM | IC50 (SK-PN-DW): > 5 µM | IC50 (COLO-792): > 5 µM | IC50 (MFM-223): > 5 µM | IC50 (DSH1): > 5 µM | IC50 (KINGS-1): > 5 µM | IC50 (OVCAR-3): > 5 µM | IC50 (CWR22R): > 5 µM | IC50 (TYK-nu): > 5 µM | IC50 (U-87 MG): > 5 µM | IC50 (HGC-27): > 5 µM | IC50 (K5): > 5 µM | IC50 (KM-H2): > 5 µM | IC50 (NCI-H526): 3.87 µM | IC50 (NCI-H1650): > 5 µM | IC50 (MKN-45): > 5 µM | IC50 (SW756): > 5 µM | IC50 (BV-173): > 5 µM | IC50 (ACN): > 5 µM | IC50 (HCT-116): > 5 µM | IC50 (KU-19-19): > 5 µM | IC50 (A204): > 5 µM | IC50 (SK-MEL-30): > 5 µM | IC50 (NB10): > 5 µM | IC50 (NH-12): > 5 µM | IC50 (DOHH-2): > 5 µM | IC50 (HCC38): > 5 µM | IC50 (MLMA): > 5 µM | IC50 (GI-1): > 5 µM | IC50 (BB49-HNC): > 5 µM | IC50 (MHH-ES-1): 1.62 µM | IC50 (HN): > 5 µM | IC50 (EOL1): 0.564 µM | IC50 (KYSE-410): > 5 µM | IC50 (ABC-1): > 5 µM | IC50 (NCI-H1792): > 5 µM | IC50 (MFE-280): > 5 µM | IC50 (YAPC): > 5 µM | IC50 (OE19): > 5 µM | IC50 (Huh-7): > 5 µM | IC50 (COLO-829): > 5 µM | IC50 (HO-1-N-1): > 5 µM | IC50 (SW 954): > 5 µM | IC50 (ES7): > 5 µM | IC50 (CGTH-W-1): > 5 µM | IC50 (T-24): > 5 µM | IC50 (LB1047-RCC): > 5 µM | IC50 (RH-1): > 5 µM
